Data published in PubChem BioAssay (NCI).
Several values for one entry are separate records, joined by “and”; a condition that tells them apart may be missing. Identical values can stand only once.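 Tested at 5 concentrations; 48 h exposure; 96-well plates; endpoints linearly interpolated, else capped at highest concentration. Here, GI50 denotes the concentration required for 50% inhibition of growth. TGI is the concentration that stops growth completely.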

Tests used:
Assay in all cases: NCI-60 cell line screen, 48 h
[1] = system: NCI/ADR-RES ovarian
[2] = system: CAKI-1 renal
[3] = system: A498 renal
[4] = system: DU-145 prostate
[5] = system: OVCAR-4 ovarian
[6] = system: HL-60(TB) leukemia
[7] = system: HCC-2998 colon

Structure (SMILES)	TGI [1]	TGI [2]	TGI [3]	TGI [4]	TGI [5]	TGI [6]	TGI [7]	GI50 [3]
CC(C)OC1=C(CC2(C)OCCO2)C(=O)C12OCCO2	> 100 µM	> 100 µM	> 100 µM	> 100 µM	> 100 µM	> 100 µM		
Cc1cc2nc3c(C#N)c(C)c(CCCl)c(Cl)n3c2cc1C	21.5 µM	9.43 µM	7.64 µM	13.6 µM	16.6 µM	5.57 µM	6.23 µM	
COC(=O)N[C@@H]1C[C@H]2CC[C@]1(O[Si](C(C)C)(C(C)C)C(C)C)C(=O)C2	35.4 µM	> 100 µM	44.3 µM	> 100 µM	33.8 µM	78.7 µM		
CC1(C)CCCCCC(O)C(O)CCC(C)(C)C1=O (centres undefined)	> 100 µM	> 100 µM	> 100 µM	> 100 µM	> 100 µM	> 100 µM		
Cc1cn(C2CC(O)C(Cn3nncc3Cn3nc(Br)c(=O)[nH]c3=O)O2)c(=O)[nH]c1=O (centres undefined)	> 100 µM	> 100 µM	> 100 µM	> 100 µM	> 100 µM		> 100 µM	
O=c1c(O)c(-c2ccccc2)oc2c(CP(=O)(O)O)cccc12		> 100 µM	> 100 µM	> 100 µM	> 100 µM		> 100 µM	
N#Cc1ccc(-c2ccc(Cl)cc2)n(C2OC(CO)C(O)C(O)C2O)c1=S (centres undefined)		> 100 µM	> 100 µM and 57.5 µM	> 100 µM	> 100 µM	> 100 µM	> 100 µM	> 100 µM and 18.9 µM
CCCCCc1cc2cc3c(c(O)c2c(=O)[nH]1)C1(CCC3)C(=O)c2c(O)ccc(O)c2C1=O	> 100 µM	> 100 µM	> 100 µM	> 100 µM	> 100 µM	> 100 µM	> 100 µM	
COC(=O)NC(Cc1ccccc1)NC(=O)OC(C)(C)C (centres undefined)	> 100 µM	> 100 µM	> 100 µM	> 100 µM	> 100 µM	> 100 µM	> 100 µM	
O=C(O)c1cc(NCc2cc(O)ccc2O)ccc1O	> 100 µM	> 100 µM	> 100 µM	> 100 µM	> 100 µM		> 100 µM	
Cc1ccc(C)n1-c1ccccc1C1C=Cn2c(=O)oc3c(OC(C)C)c(OC(C)C)c(O)c1c32 (centres undefined)	> 100 µM	> 100 µM	> 100 µM	> 100 µM	> 100 µM	> 100 µM	> 100 µM	
COc1cc2nc(-c3cccs3)nc(N3CCN(c4ccccc4)CC3)c2cc1OC	> 100 µM	> 100 µM	> 100 µM	> 100 µM	> 100 µM	> 100 µM		
COc1cc(C2c3cccc4cccc(c34)C3CCC(=O)N32)cc(OC)c1O (centres undefined)	> 50 µM		> 50 µM	> 50 µM	> 50 µM	> 50 µM		
CCOP(=O)(OCC)/C(=C/n1c(=S)[nH]c2ccccc21)C(=O)OC	> 100 µM	> 100 µM	> 100 µM	> 100 µM	> 100 µM	> 100 µM	> 100 µM	
CCOC(=O)c1sc2nc(SC)nc3c2c1NCN3C	> 100 µM	> 100 µM	57.6 µM	> 100 µM	> 100 µM		> 100 µM	
O=C(CCCCCNC(=O)c1ccc(Cl)cc1)NO	5.07 µM	21.1 µM		> 100 µM	> 100 µM	16.1 µM	18.3 µM	
COC1C(O)C(C)OC(O[C@H]2CC[C@@]3(C)C(CC[C@@H]4[C@@H]3CC[C@]3(C)[C@@H](C(C)OC5OC(CO)C(O)C(O)C5O)CC[C@]43O)C2)C1O (some centres undefined)	> 25 µM	> 25 µM	> 25 µM		> 25 µM	> 25 µM	> 25 µM	
O=c1oc2ccccc2c(O)c1C(c1ccc(OCc2ccccc2)cc1)c1c(O)c2ccccc2oc1=O	> 100 µM	81.2 µM	> 100 µM	> 100 µM	> 100 µM	65.9 µM	96.9 µM	
CCOc1ccc2c(c1)C(/C(C(Cl)=C(Cl)Cl)=[N+](/[O-])OC(=O)c1ccccc1)=N2	> 100 µM	> 100 µM	> 100 µM	> 100 µM	> 100 µM	> 100 µM	> 100 µM	
CC1(C)CC(=O)c2c(N)n[nH]c2C1	> 100 µM	> 100 µM	> 100 µM	> 100 µM	> 100 µM	> 100 µM	> 100 µM	
COC(=O)/C=C1\C(CO[Si](C)(C)C(C)(C)C)OC(n2cc(C)c(=O)n(C)c2=O)C1O[Si](C)(C)C(C)(C)C (centres undefined)	> 100 µM		> 100 µM	> 100 µM				
[N-]=[N+]=Nc1cc(=O)[nH]c2ccccc12	> 100 µM	> 100 µM			> 100 µM			
Cc1ccc(/C=c2\c(=O)[nH]c3nc4ccccc4c(=O)n23)cc1	> 100 µM	> 100 µM		> 100 µM	> 100 µM	> 100 µM	62.6 µM	
COc1ccc(NC(=O)CSC(=O)c2ccccc2)c(SCCSSCCSc2cc(OC)ccc2NC(=O)CSC(=O)c2ccccc2)c1	> 100 µM	> 100 µM	> 100 µM	> 100 µM	83.7 µM	> 100 µM		
CCN(CC)/N=C\c1c2ccccc2cc2ccccc12	> 100 µM	> 100 µM	> 100 µM	> 100 µM	> 100 µM	> 100 µM		
CCOC(=O)Cc1[nH]c(C(=O)c2ccccc2)cc1C(=O)c1ccccc1	> 100 µM		> 100 µM	> 10 µM	59.8 µM	> 100 µM	> 100 µM	
CC1(C)C2CC3C(C)(C2)C31c1cc(Cl)ccc1N (centres undefined)	29.5 µM	29.1 µM	31.8 µM	27 µM	28.6 µM		28.2 µM	
Cc1nc(N)c(N2CCN(S(=O)(=O)N(Cc3ccccc3)Cc3ccccc3)CC2)c(=O)[nH]1	> 100 µM			52.7 µM	93.6 µM	> 100 µM	> 100 µM	
N=c1ncn(C/C=C/c2ccccc2)c2nc[nH]c12	> 100 µM	> 100 µM	> 100 µM	> 100 µM	> 100 µM		> 100 µM	
O=S(=O)(O)c1ccc(O)c(N=Nc2c(O)ccc3ccccc23)c1	> 100 µM	> 100 µM	> 100 µM	> 100 µM	> 100 µM			
